Assay [1] addresses T1, Serotonin reuptake (Rattus norvegicus, UniProt P31652).
T1 construct: synaptosomes are freshly isolated from areas of the rat brain; from tissue
As to the kind of experiment: Inhibition of serotonin (5HT) reuptake in rat brain synaptosomes. It is filed as biochemical. How it is done: (§1) In order to be able to carry out these in vitro studies, synaptosomes are freshly isolated from areas of the rat brain. In each case a so-called “P2” fraction prepared in accordance with the instruction of Gray and Whittaker (E. G. Gray and V. P. Whittaker (1962) J. Anat. 76, 79-88) is prepared. For the NA uptake, these vesicular particles are isolated from the hypothalamus of male rat brains.
(§2) A detailed description of the method can be found in the literature (M. Ch. Frink, H.-H. Hennies, W. Englberger, M. Haurand and B. Wilffert (1996) Arzneim.-Forsch./Drug Res. 46 (III), 11, 1029-1036).

Assay [2] has as its target T2, human μ opiate receptor (Homo sapiens, UniProt P35372).
T2 construct: purchased PerkinElmer Life Sciences, Zaventem, Belgium RB-HOM; host or cells: CHO-K1 cells (recombinant expression)
As to the kind of experiment: Affinity for the human μ opiate receptor ([3H]-naloxone displacement, CHO-K1 membrane preparation, SPA). It is filed as binding. Particulars: for inhibition at 1 µM / μ opioid receptor [1 μM], % inhibition: 1 μM test substance, displacement of [3H]-naloxone; for inhibition at 1 µM: read-out: μ opioid receptor [1 μM], % inhibition; for Ki: Cheng-Prusoff conversion from IC50, read-out: μ opioid receptor, Ki; for μ opioid receptor [1 μmol], % inhibition: compounds prepared via automated synthesis, single measurements at a test concentration of 1 μM. A digest of the protocol: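 CHO-K1 membranes expressing human μ receptor (15-40 μg protein/250 μl) were incubated 90 min at room temperature with 1 nmol/l [³H]-naloxone and WGA-SPA beads in 50 mmol/l Tris-HCl with 0.06% BSA; 100 μmol/l naloxone defined nonspecific binding. Percent displacement measured at 1 μmol/l; IC50 converted to Ki via Cheng-Prusoff.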
(In a radioligand displacement assay an active substance lowers the binding of a labelled ligand.)

In assay [3] the target is T3, Noradrenaline reuptake (Rattus norvegicus, UniProt Q63380).
T3 construct: synaptosomes are freshly isolated from areas of the rat brain; from tissue; host or cells: P2 synaptosome fraction from the hypothalamus of male rat brains
The assay is described as follows: Inhibition of noradrenaline (NA) reuptake in rat brain synaptosomes. It is filed as biochemical. The settings on record: synaptosomes from rat hypothalamus. As to the method:
as §1, §2

Structures can show the parent of a compound that is named as a salt.

This is an account of results in US8124788B2, “Spirocyclic cyclohexane compounds with analgesic activity” (Gruenenthal GmbH, priority 2006, dated 2012).

T1 sequence (P31652 whole entry): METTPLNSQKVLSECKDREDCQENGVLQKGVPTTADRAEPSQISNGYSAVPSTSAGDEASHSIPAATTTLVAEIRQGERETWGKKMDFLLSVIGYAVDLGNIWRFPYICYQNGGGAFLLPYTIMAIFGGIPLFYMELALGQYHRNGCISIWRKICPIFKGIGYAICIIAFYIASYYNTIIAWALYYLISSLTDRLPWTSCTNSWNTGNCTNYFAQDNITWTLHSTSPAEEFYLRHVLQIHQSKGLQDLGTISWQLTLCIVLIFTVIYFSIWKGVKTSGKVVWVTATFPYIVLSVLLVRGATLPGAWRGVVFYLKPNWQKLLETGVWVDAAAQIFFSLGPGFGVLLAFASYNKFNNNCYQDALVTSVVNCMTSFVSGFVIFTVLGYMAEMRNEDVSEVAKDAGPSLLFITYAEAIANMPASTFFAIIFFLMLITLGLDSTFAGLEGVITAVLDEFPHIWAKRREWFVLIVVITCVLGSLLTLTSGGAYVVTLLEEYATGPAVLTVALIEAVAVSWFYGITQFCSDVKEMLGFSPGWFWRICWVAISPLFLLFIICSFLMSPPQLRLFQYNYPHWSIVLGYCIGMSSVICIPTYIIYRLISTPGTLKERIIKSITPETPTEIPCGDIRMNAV
T2 sequence (P35372 whole entry): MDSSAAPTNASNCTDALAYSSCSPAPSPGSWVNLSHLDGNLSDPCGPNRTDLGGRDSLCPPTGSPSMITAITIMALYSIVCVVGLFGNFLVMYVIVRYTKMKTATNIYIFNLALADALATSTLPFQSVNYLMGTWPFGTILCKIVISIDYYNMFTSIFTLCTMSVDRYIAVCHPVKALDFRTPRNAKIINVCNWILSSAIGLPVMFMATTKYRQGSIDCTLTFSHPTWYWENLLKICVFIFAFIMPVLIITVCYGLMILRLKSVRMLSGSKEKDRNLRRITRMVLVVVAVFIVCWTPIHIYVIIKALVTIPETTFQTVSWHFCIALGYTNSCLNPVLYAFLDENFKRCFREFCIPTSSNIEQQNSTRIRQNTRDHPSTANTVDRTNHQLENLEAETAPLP
T3 sequence (Q63380 1-617): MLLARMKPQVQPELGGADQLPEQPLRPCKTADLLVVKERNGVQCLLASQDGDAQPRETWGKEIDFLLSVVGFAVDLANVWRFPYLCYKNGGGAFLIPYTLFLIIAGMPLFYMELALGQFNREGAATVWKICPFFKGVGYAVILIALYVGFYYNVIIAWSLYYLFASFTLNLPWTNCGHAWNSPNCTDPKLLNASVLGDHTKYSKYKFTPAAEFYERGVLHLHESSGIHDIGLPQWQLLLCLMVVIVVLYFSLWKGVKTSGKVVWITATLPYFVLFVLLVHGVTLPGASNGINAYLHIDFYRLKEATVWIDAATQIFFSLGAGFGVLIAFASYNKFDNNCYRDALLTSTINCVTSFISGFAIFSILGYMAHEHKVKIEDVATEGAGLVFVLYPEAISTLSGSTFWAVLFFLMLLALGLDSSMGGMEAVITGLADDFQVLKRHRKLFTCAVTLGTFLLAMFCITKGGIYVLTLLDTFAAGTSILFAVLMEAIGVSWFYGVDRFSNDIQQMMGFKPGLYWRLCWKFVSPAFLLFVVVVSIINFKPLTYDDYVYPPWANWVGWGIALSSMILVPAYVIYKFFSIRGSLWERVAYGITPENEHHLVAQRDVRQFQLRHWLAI

As usually defined, the inhibition is the change of the read-out against control, counted positive when it falls. One may read the Ki as the equilibrium dissociation constant of an inhibitor or competing ligand from its target. With `CN(C)C(c1ccc(F)cc1)C1CCC2(CC1)OCCc1c2[nH]c2ccccc12` (stereo not drawn) [Compound 25, 1,1-[3-(Dimethylamino-(4-fluorophenyl)-methyl)-pentamethylene]-1,3,4,9-tetrahydro-pyrano[3,4-b]indole], the inhibition at 10 µM in assay [1] worked out at 68%. Moreover, in assay [2], the inhibition at 1 µM was determined as 86% and the Ki worked out at 350 nM. Turning to `CN(C)C(c1ccc(Cl)cc1)C1CCC2(CC1)OCCc1c2[nH]c2ccc(F)cc12` (stereo not drawn) [Compound 38, 6-Fluoro-1,1-[3-(dimethylamino-(4-chlorophenyl)-methyl)-pentamethylene]-1,3,4,9-tetrahydropyrano[3,4-b]indole], in assay [3], the inhibition at 10 µM came out at 59%. Besides, the inhibition at 10 µM in assay [1] was determined as 57%. In assay [2], the inhibition at 1 µM amounted to 84% and the Ki amounted to 260 nM.

Turning to `CC1Cc2c([nH]c3ccc(F)cc23)C2(CCC(C(c3cccc(F)c3)N(C)C)CC2)O1` (stereo not drawn) [Compound 52, 6-Fluoro-3-methyl-1,1-[3-(dimethylamino-(3-fluorophenyl) -methyl)-pentamethylene]-1,3,4,9-tetrahydropyrano[3,4-b]indole], the “Serotonin reuptake, % inhibition [10 μM]” value in assay [1] is on record as 68%. Besides, the “μ opioid receptor [1 μM], % inhibition” value in assay [2] was 53%. The like results for `Cc1ccc2[nH]c3c(c2c1)CC(C)OC31CCC(C(c2ccc(F)cc2)N(C)C)CC1` (stereo not drawn) [Compound 40, 3,6-Dimethyl-1,1-[3-(dimethylamino-(4-fluorophenyl)-methyl) -pentamethylene]-1,3,4,9-tetrahydropyrano[3,4-b]indole] were, in that order, 47% and 68%. Take `Cc1ccc2[nH]c3c(c2c1)CC(C)OC31CCC(C(c2ccccc2)N(C)C)CC1` (stereo not drawn) [Compound 42, 3,6-Dimethyl-1,1-[3-(dimethylamino-(phenyl)-methyl)-pentamethylene]-1,3,4,9-tetrahydropyrano[3,4-b]indole Citrate]: the inhibition at 10 µM in assay [1] worked out at 64%. Moreover, in assay [2], the inhibition at 1 µM is 101% and the Ki is 29 nM. The like results for `CN(C)C(c1ccccc1)C1CCC2(CC1)OCCc1c2[nH]c2ccc(F)cc12` (stereo not drawn) [Compound 37, 6-Fluoro-1,1-[3-(dimethylamino-(phenyl)-methyl)-pentamethylene]-1,3,4,9-tetrahydro-pyrano[3,4-b]indole] were, in that order, 68%, 74% and 37 nM. Regarding `CC1Cc2c([nH]c3ccc(F)cc23)C2(CCC(C(c3ccc(F)cc3)N(C)C)CC2)O1` (stereo not drawn) [Compound 51, 6-Fluoro-3-methyl-1,1-[3-(dimethylamino-(4-fluorophenyl) -methyl)-pentamethylene]-1,3,4,9-tetrahydropyrano[3,4-b]indole], in assay [1], the “Serotonin reuptake, % inhibition [10 μM]” value stood at 39%. Moreover, the “μ opioid receptor [1 μM], % inhibition” value in assay [2] came out at 46%. The like results for `CN(C)C(c1ccc(Cl)cc1)C1CCC2(CC1)NCCc1c2[nH]c2ccccc12` (stereo not drawn) [Compound 22, 1,1-[3-(4-Chlorophenyl-(dimethylamino)-methyl)-pentamethylene]-3,4-dihydro-1H-2,9-diazafluorene] were, in that order, 76% and 33%. Turning to `CN(C)C(c1ccc(F)cc1)C1CCC2(CC1)c1[nH]c3ccccc3c1CCN2C(=O)CC(C)(C)C` (stereo not drawn) [Compound 62, 1-{1,1-[3-(dimethylamino-(4-fluorophenyl)methyl) -pentamethylene]-3,4-dihydro-1H-2,9-diazafluoren-2-yl}-3,3-dimethylbutan-1-one], the “μ opioid receptor [1 μmol], % inhibition” value in assay [2] was determined as 12%. Still for that read-out and setting: the result for `COc1ccc(CC(=O)N2CCc3c([nH]c4ccccc34)C23CCC(C(c2cccc(F)c2)N(C)C)CC3)cc1OC` (stereo not drawn) [Compound 67, 2-[(3,4-dimethoxyphenyl)acetyl]-{1,1-[3-(dimethylamino-(3-fluorophenyl)methyl)-pentamethylene]-3,4-dihydro-1H-2,9-diazafluorene}] reads 25%; that for `CN(C)C(c1ccc(Cl)cc1)C1CCC2(CC1)c1[nH]c3ccccc3c1CCN2C(=O)Cc1cccc(Br)c1` (stereo not drawn) [Compound 132, 2-[(3-bromophenyl)acetyl]-{1,1-[3-(dimethylamino-(4-chlorophenyl)-methyl)-pentamethylene]-3,4-dihydro-1H-2,9-diazafluorene}], 65%.

With `CN(C)C(c1cccc(F)c1)C1CCC2(CC1)OCCc1c2[nH]c2ccc(F)cc12` (stereo not drawn) [Compound 36, 6-Fluoro-1,1-[3-(dimethylamino-(3-fluorophenyl)-methyl)-pentamethylene]-1,3,4,9-tetrahydropyrano[3,4-b]indole], in assay [2], the inhibition at 1 µM came out at 102% and the Ki worked out at 46 nM. For `CCC(=O)N1CCc2c([nH]c3ccccc23)C12CCC(C(c1cccc(F)c1)N(C)C)CC2` (stereo not drawn) [Compound 113, 2-propionyl-{1,1-[3-(dimethylamino-(3-fluorophenyl)methyl)-pentamethylene]-3,4-dihydro-1H-2,9-diazafluorene}], the “μ opioid receptor [1 μmol], % inhibition” value in assay [2] turned out to be 13%.

For the compound `Cc1ccc2sc(C(=O)N3CCc4c([nH]c5ccccc45)C34CCC(C(c3cccc(F)c3)N(C)C)CC4)cc2c1` (stereo not drawn) [Compound 128, 2-[5-methylbenzothien-2-ylcarbonyl]-{1,1-[3-(dimethylamino-(3-fluorophenyl)methyl)-pentamethylene]-3,4-dihydro-1H-2,9-diazafluorene}], the “μ opioid receptor [1 μmol], % inhibition” value in assay [2] is recorded as 16%. With `CC(=Cc1ccccc1)C(=O)N1CCc2c([nH]c3ccccc23)C12CCC(C(c1ccc(F)cc1)N(C)C)CC2` (stereo not drawn) [Compound 64, 1-{1,1-[3-(dimethylamino-(4-fluorophenyl)methyl) -pentamethylene]-3,4-dihydro-1H-2,9-diazafluoren-2-yl}-2-methyl-3-phenylprop-2-en-1-one], the “μ opioid receptor [1 μmol], % inhibition” value in assay [2] is given as 15%. Consider `CC(C)CC(=O)N1CCc2c([nH]c3ccccc23)C12CCC(C(c1ccc(Cl)cc1)N(C)C)CC2` (stereo not drawn) [Compound 134, 1-{1,1-[3-(dimethylamino-(4-chlorophenyl)methyl) -pentamethylene]-3,4-dihydro-1H-2,9-diazafluoren-2-yl}-3-methylbutan-1-one], for which, in assay [2], the “μ opioid receptor [1 μmol], % inhibition” value was 47%. For the compound `CC(=O)N1CCc2c([nH]c3ccccc23)C12CCC(C(c1ccc(F)cc1)N(C)C)CC2` (stereo not drawn) [Compound 84, acetyl-{1,1-[3-(dimethylamino-(4-fluorophenyl)methyl) -pentamethylene]-3,4-dihydro-1H-2,9-diazafluorene}], in assay [2], the “μ opioid receptor [1 μmol], % inhibition” value amounted to 41%. The same measure, in the same setting: the result for `CN(C)C(c1cccc(F)c1)C1CCC2(CC1)c1[nH]c3ccccc3c1CCN2C(=O)C1CCCCC1` (stereo not drawn) [Compound 69, 2-(cyclohexylcarbonyl)-{1,1-[3-(dimethylamino-(3-fluorophenyl)methyl)-pentamethylene]-3,4-dihydro-1H-2,9-diazafluorene}] reads 26%; that for `CN(C)C(c1ccccc1)C1CCC2(CC1)c1[nH]c3ccccc3c1CCN2C(=O)Cc1cccs1` (stereo not drawn) [Compound 82, 2-(2-thienylacetyl)-{1,1-[3-(dimethylamino-phenylmethyl)-pentamethylene]-3,4-dihydro-1H-2,9-diazafluorene}], 31%; that for `CN(C)C(c1ccc(Cl)cc1)C1CCC2(CC1)c1[nH]c3ccccc3c1CCN2C(=O)C1CC1` (stereo not drawn) [Compound 96, 2-(cyclopropylcarbonyl)-{1,1-[3-(dimethylamino-(4-chlorophenyl)methyl)-pentamethylene]-3,4-dihydro-1H-2,9-diazafluorene}], 18%. The same measure, in the same setting: the result for `CC(=Cc1ccccc1)C(=O)N1CCc2c([nH]c3ccccc23)C12CCC(C(c1ccccc1)N(C)C)CC2` (stereo not drawn) [Compound 58, 1-{1,1-[3-(dimethylamino-phenylmethyl)-pentamethylene]-3,4-dihydro-1H-2,9-diazafluoren-2-yl}-2-methyl-3-phenylprop-2-en-1-one] reads 50%. Still for that read-out and setting: the result for `CN(C)C(c1ccccc1)C1CCC2(CC1)c1[nH]c3ccccc3c1CCN2C(=O)c1csc2ccccc12` (stereo not drawn) [Compound 103, 2-(1-benzothien-3-ylcarbonyl)-{1,1-[3-(dimethylamino-phenylmethyl)-pentamethylene]-3,4-dihydro-1H-2,9-diazafluorene}] reads 13%. Take `CC1Cc2c([nH]c3ccc(F)cc23)C2(CCC(C(CCc3ccccc3)N(C)C)CC2)O1` (stereo not drawn) [Compound 54, 6-Fluoro-3-methyl-1,1-[3-(dimethylamino-(phenylethyl)-methyl) -pentamethylene]-1,3,4,9-tetrahydropyrano[3,4-b]indole]: the “Serotonin reuptake, % inhibition [10 μM]” value in assay [1] is given as 55%. Also, in assay [2], the “μ opioid receptor [1 μM], % inhibition” value is 21%. For `Cc1ccc2[nH]c3c(c2c1)CC(C)OC31CCC(C(CCc2ccccc2)N(C)C)CC1` (stereo not drawn) [Compound 43, 3,6-Dimethyl-1,1-[3-(dimethylamino-(phenylethyl)-methyl)-pentamethylene]-1,3,4,9-tetrahydropyrano[3,4-b]indole], in assay [2], the “μ opioid receptor [1 μM], % inhibition” value is 42%.
